Read-outs that look alike come from different tables or passages of the source. Each block holds one compound with its values, some of them ahead of it.
How the values were obtained:
human serum albumin = conditions: 45 g/L albumin, in vitro; cited from earlier work
[1] = cited from earlier work
[2] = cited from earlier work; remark: listed apart in the source
[3] = system: cytochrome P450 (CYP) isoenzymes; conditions: human hepatocytes and human liver microsomes; ref Boehringer Ingelheim unpublished data, 26; cited from earlier work
HER2 = conditions: HER2, cell-free; cited from earlier work
[4] = after a high-fat, high-caloric meal; cited from earlier work
[5] = minipigs, cited from earlier work
P-gp [6] = conditions: Caco-2 monolayers and human P-gp-expressing LLC-PK1 cells; cited from earlier work
[7] = physiological pH range of 1–7.5; cited from earlier work
BCRP = conditions: in vitro; cited from earlier work
ErbB4 = conditions: ErbB4, cell-free; cited from earlier work
[8] = cited from earlier work; remark: listed apart in the source
[9] = a P-gp substrate; cited from earlier work
[10] = system: EGFR, HER2, ErbB4 phosphorylation and ErbB3 transphosphorylation; conditions: wide variety of cell lines; cited from earlier work
[11] = in vitro and in vivo toxicology studies; cited from earlier work
[12] = type: in vivo; conditions: human, plasma, oral
[13] = LUX-Lung 3, cited from earlier work
[14] = cited from earlier work; remark: listed apart in the source
[15] = rabbit; ref Boehringer Ingelheim unpublished data, 25, 28; cited from earlier work
[16] = human; cited from earlier work
P-gp [17] = conditions: read-out: inhibition constant (K i), digoxin transport; cited from earlier work
[18] = cited from earlier work; remark: listed apart in the source
[19] = cited from earlier work; for V z/F, gMean / gMean terminal half-life: 10–100 mg doses
[20] = PopPK, cited from earlier work
[21] = cited from earlier work; remark: listed apart in the source
[22] = cited from earlier work; remark: listed apart in the source
[23] = system: OATP, OAT and OCT drug transporters; conditions: transfected HEK293 cell lines; cited from earlier work
[24] = cited from earlier work; remark: listed apart in the source
[25] = mouse; ref Boehringer Ingelheim unpublished data, 25, 28; cited from earlier work
[26] = all animal species (rabbits, rats, minipigs and mice), 0.05–0.5 μM; cited from earlier work
[27] = afatinib 20 mg, ritonavir 200 mg twice daily administered 1 h before afatinib, healthy subjects

Structure (SMILES): CN(C)C/C=C/C(=O)Nc1cc2c(Nc3ccc(F)c(Cl)c3)ncnc2cc1O[C@H]1CCOC1 [afatinib dimaleate]
- binding to isolated human serum albumin (human serum albumin): 79.6%
- dose recovered in the urine ([1]; within 216 h after oral dose of 15 mg [14C]-radiolabelled afatinib dimaleate): 4.29%
- dose recovered in the faeces ([1]; within 312 h after oral dose of 15 mg [14C]-radiolabelled afatinib dimaleate): 85.4%

- half-life [12]: ~37 h
Structure (SMILES): CN(C)CC=CC(=O)Nc1cc2c(Nc3ccc(F)c(Cl)c3)ncnc2cc1O[C@H]1CCOC1 [afatinib, N-[4-[(3-chloro-4-fluorophenyl)amino]-7-[[(3S)-tetrahydro-3-furanyl]oxy]-6-quinazolinyl]-4-(dimethylamino)-2-butenamide]
- decrease of mean time-matched QTcF between baseline and day 14 ([2]; afatinib 50 mg, over 1–24 h following administration, non-significant): 0.3 ms
- proarrhythmic potential ([2]; dose of 50 mg): does not have proarrhythmic potential
- potential to inhibit or induce CYP isoenzymes [3]: low potential to inhibit or induce
- potency to inhibit kinase (HER2): nanomolar potency
- reduction of AUC∞ by food [4]: ~39%
- reduction of C max by food [4]: approximately 50%
- volume of distribution ([5]; intravenous dosing): 12.4 L/kg
- excretion of unchanged parent compound ([5]; ref Boehringer Ingelheim unpublished data, 25, 28): > 72%
- substrate of the efflux transporter P-gp (P-gp [6]): P-gp substrate
- solubility [7]: highly soluble
- substrate and inhibitor of the efflux transporter BCRP (BCRP): substrate and inhibitor
- potency to inhibit kinase (ErbB4): nanomolar potency
- excretion of unchanged parent compound ([8]; rat, ref Boehringer Ingelheim unpublished data, 25, 28): > 50%
- volume of distribution ([8]; rats, intravenous dosing): 16.2 L/kg
- change in exposure on concomitant administration with sirolimus [9]: did not result in a clinically relevant change in exposure
- potency of inhibition of phosphorylation in cells [10]: low nanomolar range
- genotoxicity [11]: no evidence of genotoxicity
- interpatient variability in exposure (gCV) ([13]; day 1 of cycle three): 67%
- interpatient variability in exposure (gCV) ([13]; day 1 of cycle two): 85%
- increase in afatinib exposure (AUC∞) by ritonavir [14, 27]: 48%
- increase in afatinib exposure (C max) by ritonavir [14, 27]: 39%
- change in afatinib exposure by ritonavir ([14]; afatinib 40 mg, ritonavir taken concomitantly or 6 h after afatinib): did not relevantly change
- excretion of unchanged parent compound [15]: > 87%
- plasma protein bound [16]: approximately 95%
- Ki (P-gp [17]): 3.4 µM
- urinary excretion of afatinib-related radioactivity ([1]; ADME study): < 5%
- unchanged drug excreted in urine ([1]; approximate): approximately 5%
- passive permeability through cell membranes [18]: high passive permeability
- time to achieve steady-state ([19]; once-daily dosing): ≤ 8 days
- V z/F, gMean ([19]; single doses): 1940 L
- gMean terminal half-life ([19]; single doses): 21 h
- Overall drug clearance (CL/F), gMean ([19]; single doses): 1050 mL/min
- V z/F, gMean ([19]; steady state): 2770 L
- gMean terminal half-life ([19]; steady state): 37 h
- Overall drug clearance (CL/F), gMean ([19]; steady state): 898 mL/min
- increase in exposure for CLCR 43 mL/min ([20]; 2.5th percentile): 27.8%
- increase in exposure in female patients ([20]; accounting for all other covariate effects): 15%
- decrease in exposure for food intake ([20]; food intake less than 3 h before or less than 1 h after afatinib administration): 26%
- effect of hepatic impairment on plasma protein binding [21]: no effect
- effect of renal impairment on plasma protein binding [22]: no effect
- increase in AUC in patients with severe renal impairment ([22]; severe renal impairment): approximately 50%
- in vitro transport of afatinib by OATP, OAT, OCT [23]: no relevant in vitro transport
- BCS class [24]: BCS class 1 or 3
- excretion of unchanged parent compound [25]: > 60%
- Mean plasma protein binding [26]: > 92%

Reference: article PMC5315738 (Clinical Pharmacokinetics, 2016)
